Measured values: US20120010177A1, “MicroRNA Modulators and Method for Identifying And Using The Same” (The Wistar Institute / North Carolina State University, priority 2008, published 2012)
Where two headings read alike, the source gives them in different places.

System: miR-21
Experiment: High throughput primary miR-21 FLuc reporter assay (concentration-response)
Assay type: cell-based, human
Settings: for AC50: read-out: AC50
How it was run: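 HeLa cells carrying a Luc-miR-21 firefly luciferase reporter were treated with compound for 48 h. miR-21 inhibition was read as increased luciferase signal. Concentration-response data were fitted with a four-parameter logistic model.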

[1] = Homo sapiens, HeLa, 48 h, HeLa Luc-miR-21 reporter, 48-hour incubation
[2] = Homo sapiens, Table 12 singletons
[3] = HeLa Luc-miR-21 reporter, 48-hour incubation

Row | Compound | AC50 [1] [µM] | further results
1 | Cc1ccccc1Nc1nc(N)nc(CSc2nnc3ccccn23)n1 [Compound 64] | 16.5 | 
2 | COc1ccc(-n2ncc3c(NCCCn4ccnc4)ncnc32)cc1 [Compound 247] | 10.4 | 
3 | O=C(Nc1ccc(-c2nc3ccccc3[nH]2)cc1)c1ccc2c(c1)OCO2 [Compound 91] | 6.56 | 
4 | CCc1cccc(-n2nnc(-c3nc(-c4ccccc4Cl)no3)c2N)c1 [Compound 26] | 16.5 | 
5 | c1ccc(-c2onc3cc4c(cc23)OCCO4)cc1 [Compound 257] |  | AC50 [2]: 2.07 µM
6 | O=C(CN1c2ccc(Br)cc2-c2ccccc2[S+]1(=O)[O-])N1CCCCC1 [Compound 345] |  | AC50 [2]: 9.27 µM
7 | CCS(=O)(=O)n1nc(-c2ccccc2)nc1NCc1ccco1 [Compound 41] | 18.5 | 
8 | CCc1cccc(CC)c1N(COC)C(=O)Cn1c(CC)nc2ccccc21 [Compound 307] |  | AC50 [2]: 14.7 µM
9 | Cc1cc(C)c(C#N)c(SCC(=O)Nc2nonc2N)n1 [Compound 156] | 14.7 | 
10 | CCOc1cccc(OCCOc2ccccc2[N+](=O)[O-])c1 [Compound 303] |  | AC50 [2]: 14.7 µM
11 | CC(C)N1CCC(=NNC(=O)c2cccs2)CC1 [Compound 206] | 6.56 | 
12 | Nc1cc(N)nc(SCC(=O)Nc2ccc(Br)cc2Cl)n1 [Compound 113] | 11.7 | 
13 | COCC(=O)Nc1nnc(C2CCCCC2)s1 [Compound 176] | 16.5 | 
14 | COC(=O)C1C(=O)C=C(Nc2ccc(F)cc2F)CC1c1ccccc1 (stereo not drawn) [Compound 343] |  | AC50 (Table 12 singletons): 18.5 µM
15 | Cc1ccc(SCC(=O)Nc2ccc3oc(-c4ccc(F)cc4)nc3c2)cc1 [Compound 140] | 7.36 | 
16 | C=CCNC(=S)NNC(=O)COc1ccc2cc(Br)ccc2c1 [Compound 181] | 7.36 | 
17 | Fc1ccccc1CSc1nnc(-c2cnccn2)n1Cc1ccco1 [Compound 54] | 20.8 | 
18 | CC(C)c1ccc(CNc2nc(-c3ccco3)nn2C(=O)c2ccc([N+](=O)[O-])cc2)cc1 [Compound 31] | 2.07 | 
19 | c1ccc(-c2nnc(CN3CCCCC3)o2)cc1 [Compound 327] |  | AC50 [2]: 16.5 µM
20 | O=C(CSc1nnc(-c2ccccn2)o1)Nc1cccc(Cl)c1 [Compound 124] | 1.85 | 
21 | Cn1nc(NC(=O)C(F)(F)F)c2ncc(-c3ccc(Cl)cc3)nc21 [Compound 283] |  | AC50 [2]: 9.27 µM
22 | CCc1cccc(-n2nnc(-c3nc(-c4cccs4)no3)c2N)c1 [Compound 19] | 1.65 | 
23 | Cc1ccsc1/C=N/NC(=O)c1ccc(-n2cccc2)cc1 [Compound 223] | 13.1 | 

Row | Compound | AC50 [1] [µM] | further results
24 | CC(C)COc1ccc(C(=O)Nc2cc(-c3ccccc3)no2)cc1 [Compound 88] | 4.65 | 
25 | CC(C)N1C(=O)CN(C2CCCCCC2)C(=O)C1c1ccccc1F (stereo not drawn) [Compound 301] |  | AC50 [2]: 14.7 µM
26 | Cc1ccc(N/C(S)=N/NC(=O)c2nn(C)c(C)c2Cl)cc1 [Compound 203] | 5.85 | 
27 | COCc1cc(C)nc(SCC(=O)Nc2ccc3c(c2)OCCO3)c1C#N [Compound 145] | 11.7 | 
28 | c1ccc(C2=Nn3c(nnc3-c3cc(-c4ccccc4)[nH]n3)SC2)cc1 [Compound 265] |  | AC50 [2]: 3.69 µM
29 | Cc1ccc2c(C)c(C(=O)N(C)C(C)c3ccncn3)oc2c1C (stereo not drawn) [Compound 77] | 13.1 | 
30 | CCCC(=O)Nc1ccc(NC(=O)C23CC4CC(CC(C4)C2)C3)cn1 [Compound 99] | 18.5 | 
31 | CCc1ccc2oc(C(=O)Nc3nonc3CC)c(C)c2c1 [Compound 72] | 2.93 | 
32 | COc1ccc(C(Nc2ccccn2)c2c(NC(=O)c3ccco3)sc(C)c2C)cc1OC (stereo not drawn) [Compound 115] | 16.5 | 
33 | C/C(CC(=O)NC(C)(C)C)=N\NC(=O)c1ccco1 [Compound 205] | 6.56 | 
34 | O=c1n(Cc2ccccc2)nc2n1-c1ccccc1SC2 [Compound 321] |  | AC50 [2]: 16.5 µM
35 | COc1ccc(NCc2cccn2-c2nnc(N3CCC(C)CC3)s2)c(OC)c1 [Compound 255] |  | AC50 [2]: 1.85 µM
36 | Nc1c(C(=O)Nc2cc(F)ccc2F)sc2nc(-c3cccc(O)c3)ccc12 [Compound 84] | 11.7 | 
37 | COc1ccc(-c2nn3c(C4CCCCC4)nnc3s2)cc1OC [Compound 56] | 3.29 | 
38 | Nc1c(C(=O)Nc2ccc(Cl)cc2F)sc2nc(-c3cccs3)ccc12 [Compound 87] | 16.5 | 
39 | O=C(Nc1ccccc1OC(=O)c1ccc(Cl)cc1)c1ccc(Cl)cc1 [Compound 107] | 11.7 | 
40 | Cc1ccc(/N=C(/c2cccs2)N2CCOCC2)cc1 [Compound 304] |  | AC50 [2]: 14.7 µM
41 | Cc1cc(C)c2c(N)c(C(=O)Nc3ccccc3C(F)(F)F)sc2n1 [Compound 83] | 8.26 | 
42 | Cc1ccc(CNc2nc3nc(C)c(Cl)c(C)n3n2)cc1 [Compound 30] | 1.31 | 
43 | COc1ccccc1C(=O)n1nc(-c2ccco2)nc1NCc1ccc(Cl)cc1 [Compound 35] | 14.7 | 
44 | CCn1c2ccccc2c2cc(NC(=O)COC(=O)Cc3cn4ccsc4n3)ccc21 [Compound 171] | 16.5 | 
45 | CCN(CC)CCCNC(=O)CCC(=O)Nc1ccc2nc(N3CCC(C)CC3)cc(C)c2c1 [Compound 341] |  | AC50 [2]: 18.5 µM
46 | Cc1cc(Cl)c2oc(C(=O)N[C@H]3CC[C@H](O)CC3)c(C)c2c1 [Compound 80] | 16.5 | 

Row | Compound | AC50 [1] [µM] | further results
47 | C/C(=N\NC(=O)c1ccncc1)c1ccc(NC(=O)c2ccc(Cl)cc2)cc1 [Compound 185] | 1.47 | 
48 | Cc1cccc(-n2nnc(-c3nc(-c4cccs4)no3)c2N)c1 [Compound 11] | 0.33 | 
49 | C[C@]12CC[C@H]3C(=CCc4cc(O)ccc43)[C@@H]1CCC2=O [Compound 281] |  | AC50 [2]: 7.36 µM
50 | CCc1nonc1NC(=O)c1oc2ccccc2c1C [Compound 79] | 14.7 | 
51 | CC(=O)Nc1nc2c(C)cc(NC(=O)C3CCCCC3)cc2s1 [Compound 97] | 14.7 | 
52 | COc1ccc(NC(=O)c2sc3nc[nH]c(=O)c3c2C)cc1Cl [Compound 103] | 16.5 | 
53 | CCn1c(=O)c(C(=O)Nc2ccccc2S(N)(=O)=O)c(O)c2ccccc21 [Compound 309] |  | AC50 [2]: 14.7 µM
54 | O=C(CSc1nnc(-c2ccc(Cl)cc2)o1)Nc1ccc(F)cc1 [Compound 122] | 1.04 | 
55 | Cc1cc(C)cc(NC(=O)CSc2nnc(-c3ccccc3C)o2)c1 [Compound 157] | 14.7 | 
56 | CCCCCCC1/C(=N\NC(=O)c2ccccc2)CCC1C(=O)OC (stereo not drawn) [Compound 230] | 16.5 | 
57 | COc1cccc(-n2nnc(-c3nc(-c4cccs4)no3)c2N)c1 [Compound 13] | 1.04 | 
58 | COc1cccc(NC(=O)Cn2nnc(-c3nc(-c4ccccc4)no3)c2N)c1 [Compound 24] | 10.4 | 
59 | O=C(NN=C1CCCC1)c1cccs1 [Compound 186] | 1.65 | 
60 | Cc1cccc(OCC(=O)Nc2sc3c(c2C#N)CCC3)c1 [Compound 168] | 6.56 | 
61 | Nc1[nH]cnc2nc(SCC(=O)Nc3ccccc3F)nc1-2 [Compound 154, N\C1═C2/N═C(SCC(═O)NC3═C/C═C\C═C\3F)\N═C\2\N═C/N1] |  | Efficacy [3]: −64.80; Curve Class (HeLa Luc-miR-21 reporter, 48-hour incubation, four parameter logistic fit): −2.2; AC50 [3]: 14.7 µM
62 | COc1ccccc1Nc1nc(N)nc(CSc2nc(C)cc(C)n2)n1 [Compound 70] | 18.5 | 
63 | COc1ccccc1NC(=O)CSc1nnc(-c2ccccn2)o1 [Compound 153] | 14.7 | 
64 | COc1ccc(NC(=O)C/C(C)=N/NC(=O)c2ccco2)c([N+](=O)[O-])c1 [Compound 237] | 20.8 | 
65 | COc1ccc(C(=O)Nc2nnc(C(C)C)s2)cc1OC [Compound 92] | 7.36 | 
66 | CCCCCc1nc2c(=O)n(C)c3ccccc3c2o1 [Compound 324] |  | AC50 [2]: 16.5 µM
67 | COc1cc2cc(C#N)c(SCC(=O)N3CCOCC3)nc2cc1OC [Compound 144] | 11.7 | 
